The record followed here is patent publication US12065436B2, “Cardiac sarcomere inhibitors” (Cytokinetics, Inc., priority 2018, dated 2024).

The assay has as its target bovine cardiac myofibrils (full-length cardiac myosin ATPase in the native sarcomere) (Bos taurus (Bovine), UniProt Q9BE39). The experiment in a line: Skinned bovine cardiac myofibril ATPase assay (PK/LDH-coupled). Type of assay: biochemical. The note with it: Ca2+ activating to 75% of maximal rate; for CDMF75 IC15: concentration giving 15% inhibition; for IC50: read-out: CDMF75 IC50. A digest of the protocol:
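Triton-skinned bovine left-ventricle myofibrils (1 mg/mL) in PM 12 buffer (12 mM PIPES, 2 mM MgCl2, pH 6.8) with 50 μM ATP, 0.6 mM EGTA and CaCl2 set for 50% or 75% activation. Steady-state ATPase inhibition followed by PK/LDH-coupled NADH oxidation at 340 nm.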

Bounds are passed on as bounds.

Chain of bovine cardiac myofibrils (full-length cardiac myosin ATPase in the native sarcomere) (Q9BE39 whole entry): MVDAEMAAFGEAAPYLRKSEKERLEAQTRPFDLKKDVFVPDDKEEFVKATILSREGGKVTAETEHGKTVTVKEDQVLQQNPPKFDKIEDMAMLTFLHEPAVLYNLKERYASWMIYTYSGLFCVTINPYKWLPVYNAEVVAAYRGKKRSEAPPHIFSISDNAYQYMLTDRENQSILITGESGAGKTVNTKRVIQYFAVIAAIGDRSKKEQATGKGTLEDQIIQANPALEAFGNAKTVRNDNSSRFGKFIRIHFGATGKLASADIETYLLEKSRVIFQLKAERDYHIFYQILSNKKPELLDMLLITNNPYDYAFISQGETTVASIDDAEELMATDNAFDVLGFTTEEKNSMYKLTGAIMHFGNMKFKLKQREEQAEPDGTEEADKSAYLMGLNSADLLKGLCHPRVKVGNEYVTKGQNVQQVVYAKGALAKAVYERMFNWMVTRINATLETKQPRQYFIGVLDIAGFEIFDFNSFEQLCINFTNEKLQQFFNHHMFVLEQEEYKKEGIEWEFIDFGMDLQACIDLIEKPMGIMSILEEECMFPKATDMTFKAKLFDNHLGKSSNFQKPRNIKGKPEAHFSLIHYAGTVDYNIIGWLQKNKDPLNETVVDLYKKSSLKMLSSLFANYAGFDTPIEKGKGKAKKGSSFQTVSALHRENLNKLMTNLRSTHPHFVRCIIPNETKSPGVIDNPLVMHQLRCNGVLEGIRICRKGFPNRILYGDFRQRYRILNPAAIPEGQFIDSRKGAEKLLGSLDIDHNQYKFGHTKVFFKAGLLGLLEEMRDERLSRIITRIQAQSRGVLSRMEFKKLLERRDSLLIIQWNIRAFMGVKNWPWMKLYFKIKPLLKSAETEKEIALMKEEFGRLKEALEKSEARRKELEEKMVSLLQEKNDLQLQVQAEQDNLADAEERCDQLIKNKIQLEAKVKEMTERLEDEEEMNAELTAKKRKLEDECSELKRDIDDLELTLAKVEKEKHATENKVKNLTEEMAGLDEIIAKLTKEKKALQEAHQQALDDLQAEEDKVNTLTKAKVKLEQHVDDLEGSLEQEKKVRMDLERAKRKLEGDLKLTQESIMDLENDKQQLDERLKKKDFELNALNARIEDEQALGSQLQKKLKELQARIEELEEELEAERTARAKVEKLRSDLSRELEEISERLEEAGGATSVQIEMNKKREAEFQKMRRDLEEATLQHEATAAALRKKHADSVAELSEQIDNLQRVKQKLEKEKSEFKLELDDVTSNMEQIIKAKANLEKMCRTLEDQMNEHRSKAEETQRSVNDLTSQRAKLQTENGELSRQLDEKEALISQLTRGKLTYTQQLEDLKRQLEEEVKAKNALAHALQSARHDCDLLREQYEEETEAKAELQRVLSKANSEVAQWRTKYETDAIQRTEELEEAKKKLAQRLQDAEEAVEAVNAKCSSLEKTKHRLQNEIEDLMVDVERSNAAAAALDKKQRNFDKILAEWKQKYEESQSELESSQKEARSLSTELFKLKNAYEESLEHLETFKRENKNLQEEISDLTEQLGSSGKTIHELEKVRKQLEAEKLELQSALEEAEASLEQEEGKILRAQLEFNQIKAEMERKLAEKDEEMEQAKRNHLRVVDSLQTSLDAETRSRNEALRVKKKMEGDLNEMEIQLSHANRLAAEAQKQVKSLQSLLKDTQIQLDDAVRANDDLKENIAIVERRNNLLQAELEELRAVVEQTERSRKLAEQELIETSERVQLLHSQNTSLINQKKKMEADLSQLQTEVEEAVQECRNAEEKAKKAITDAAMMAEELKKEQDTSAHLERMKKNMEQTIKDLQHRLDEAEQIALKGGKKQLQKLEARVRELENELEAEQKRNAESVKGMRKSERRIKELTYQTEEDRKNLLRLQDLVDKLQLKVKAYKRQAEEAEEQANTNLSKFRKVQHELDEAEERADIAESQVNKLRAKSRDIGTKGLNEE
Chain of bovine cardiac myofibrils (full-length cardiac myosin ATPase in the native sarcomere) (P85100 whole entry partner): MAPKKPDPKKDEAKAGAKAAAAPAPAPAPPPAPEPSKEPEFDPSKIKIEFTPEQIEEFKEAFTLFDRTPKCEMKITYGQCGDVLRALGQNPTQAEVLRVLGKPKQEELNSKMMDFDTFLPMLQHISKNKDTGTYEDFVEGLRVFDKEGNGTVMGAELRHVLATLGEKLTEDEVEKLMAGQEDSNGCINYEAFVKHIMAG
Chain of bovine cardiac myofibrils (full-length cardiac myosin ATPase in the native sarcomere) (Q3SZE5 whole entry partner): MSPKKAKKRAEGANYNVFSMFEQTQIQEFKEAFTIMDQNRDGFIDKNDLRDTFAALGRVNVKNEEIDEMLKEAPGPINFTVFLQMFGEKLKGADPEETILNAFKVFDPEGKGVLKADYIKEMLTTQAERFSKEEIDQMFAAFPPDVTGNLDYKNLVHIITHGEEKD

One may read the IC50 as the concentration that inhibits the measured activity by half. For `Cc1cc(-c2ccc3c(c2)OC[C@H]3NC(=O)c2cnn(C)c2)no1` [Compound 426, (S)-1-methyl-N-(6-(5-methylisoxazol-3-yl)-2,3-dihydrobenzofuran-3-yl)-1H-pyrazole-4-carboxamide], the “CDMF75 IC15” value came to 0.8 µM and the IC50 is 2.6 µM.
In the case of `Cc1nc(-c2ccc3c(c2)OC[C@H]3NC(=O)c2ccnc(C(C)O)c2)no1` (stereo partly drawn) [Compound 738, 2-(1-hydroxyethyl)-N-((S)-6-(5-methyl-1,2,4-oxadiazol-3-yl)-2,3-dihydrobenzofuran-3-yl)isonicotinamide], the “CDMF75 IC15” value was 2.1 µM and the IC50 came to 9.5 µM.
The corresponding values for `Cc1ncc(C(=O)N[C@@H]2COc3cc(-c4noc(C(F)F)n4)ccc32)o1` [Compound 206, (S)-N-(6-(5-(difluoromethyl)-1,2,4-oxadiazol-3-yl)-2,3-dihydrobenzofuran-3-yl)-2-methyloxazole-5-carboxamide] are 0.7 µM and 2.3 µM.
As for `Cc1cc(C(=O)NC2CCc3cc(-c4cnc(C)o4)ccc32)ccn1` (stereo not drawn) [Compound 134, 2-methyl-N-(5-(2-methyloxazol-5-yl)-2,3-dihydro-1H-inden-1-yl)isonicotinamide], the “CDMF75 IC15” value was determined as 39.2 µM and the IC50 was above 39.2 µM.
On to `[2H]C([2H])([2H])c1nc(-c2ccc3c(c2)OC[C@H]3NC(=O)c2cn(C)nc2C)no1` [Compound 270, (S)-1,3-dimethyl-N-(6-(5-(methyl-d3)-1,2,4-oxadiazol-3-yl)-2,3-dihydrobenzofuran-3-yl)-1H-pyrazole-4-carboxamide], for which the “CDMF75 IC15” value stood at 0.9 µM and the IC50 was 3.1 µM.
For the molecule `CCc1nc(-c2ccc3c(c2)OC[C@H]3NC(=O)OCCO)no1` [Compound 744, 2-hydroxyethyl N-[(3S)-6-(5-ethyl-1,2,4-oxadiazol-3-yl)-2,3-dihydro-1-benzofuran-3-yl]carbamate], the “CDMF75 IC15” value came to 0.3 µM and the IC50 amounted to 1.3 µM.
Regarding `CC(C)c1nc(-c2ccc3c(c2)CC[C@H]3NC(=O)C(F)F)no1` [Compound 438, (R)-2,2-difluoro-N-(5-(5-isopropyl-1,2,4-oxadiazol-3-yl)-2,3-dihydro-1H-inden-1-yl)acetamide], the “CDMF75 IC15” value turned out to be 3.7 µM and the IC50 was 15.8 µM.
Regarding `COCc1nc(-c2ccc3c(c2)CC[C@H]3NC(=O)c2cccc(CO)c2F)no1` [Compound 670, (R)-2-fluoro-3-(hydroxymethyl)-N-(5-(5-(methoxymethyl)-1,2,4-oxadiazol-3-yl)-2,3-dihydro-1H-inden-1-yl)benzamide], the “CDMF75 IC15” value was 5.8 µM and the IC50 was 26.6 µM.
For the molecule `Cc1nc(-c2ccc3c(c2)CCC3NC(=O)c2nocc2C)no1` (stereo not drawn) [Compound 105, 4-methyl-N-(5-(5-methyl-1,2,4-oxadiazol-3-yl)-2,3-dihydro-1H-inden-1-yl)isoxazole-3-carboxamide], the “CDMF75 IC15” value is 2.2 µM and the IC50 stood at 8.9 µM.
For the molecule `CCc1nc(-c2ccc3c(c2)CC[C@H]3NC(=O)c2cnn(CCOC)c2)no1` [Compound 472, (R)-N-(5-(5-ethyl-1,2,4-oxadiazol-3-yl)-2,3-dihydro-1H-inden-1-yl)-1-(2-methoxyethyl)-1H-pyrazole-4-carboxamide], the “CDMF75 IC15” value was 0.8 µM and the IC50 worked out at 3.1 µM.
With `CCc1nc(-c2ccc3c(c2)CC[C@H]3NC(=O)c2cn[nH]c2OC)no1` [Compound 486, (R)-N-(5-(5-ethyl-1,2,4-oxadiazol-3-yl)-2,3-dihydro-1H-inden-1-yl)-5-methoxy-1H-pyrazole-4-carboxamide], the “CDMF75 IC15” value worked out at 4.1 µM and the IC50 is 24.3 µM.
On the same counts, the results for `CC(=O)OCCc1nc(-c2ccc3c(c2)CC[C@H]3NC(=O)c2cnn(C)c2)no1` [Compound 548, 2-(3-{(1R)-1-[(1-methylpyrazol-4-yl)carbonylamino]indan-5-yl}-1,2,4-oxadiazol-5-yl)ethyl acetate] are 11.8 µM and 39.2 µM.
The corresponding values for `Cn1nccc1C(=O)N[C@@H]1CCc2cc(-c3cnccn3)ccc21` [Compound 368, (R)-1-methyl-N-(5-(pyrazin-2-yl)-2,3-dihydro-1H-inden-1-yl)-1H-pyrazole-5-carboxamide] are 17.6 µM and above 39.2 µM.
On to `CCc1nc(-c2ccc3c(c2)OCC[C@H]3NC(=O)c2ccnn2C)no1` [Compound 537, (R)-N-(7-(5-ethyl-1,2,4-oxadiazol-3-yl)chroman-4-yl)-1-methyl-1H-pyrazole-5-carboxamide], for which the “CDMF75 IC15” value came out at 0.4 µM and the IC50 is 1.8 µM.
For the molecule `Cc1nc(-c2ccc3c(c2)CC[C@H]3NC(=O)c2cccc([C@H](C)O)c2)no1` [Compound 725, 3-((S)-1-hydroxyethyl)-N-((R)-5-(5-methyl-1,2,4-oxadiazol-3-yl)-2,3-dihydro-1H-inden-1-yl)benzamide], the “CDMF75 IC15” value amounted to 0.6 µM and the IC50 was 2.9 µM.
For the molecule `COCc1nc(-c2ccc3c(c2)CC[C@H]3NC(=O)OC)no1` [Compound 306, methyl (R)-(5-(5-(methoxymethyl)-1,2,4-oxadiazol-3-yl)-2,3-dihydro-1H-inden-1-yl)carbamate], the “CDMF75 IC15” value amounted to 0.9 µM and the IC50 is 3.7 µM.
Take `CCc1nc(-c2ccc3c(c2)CC[C@H]3NC(=O)OCC(C)(C)OC)no1` [Compound 359, 2-methoxy-2-methylpropyl (R)-(5-(5-ethyl-1,2,4-oxadiazol-3-yl)-2,3-dihydro-1H-inden-1-yl)carbamate]: the “CDMF75 IC15” value turned out to be 2.3 µM and the IC50 worked out at 9.5 µM.
With `CCc1nc(-c2ccc3c(c2)CC[C@H]3NC(=O)[C@@H]2CCNC(=O)C2)no1` [Compound 351, (R)-N-((R)-5-(5-ethyl-1,2,4-oxadiazol-3-yl)-2,3-dihydro-1H-inden-1-yl)-2-oxopiperidine-4-carboxamide], the “CDMF75 IC15” value was 18.8 µM and the IC50 is above 39.2 µM.
Regarding `CCc1nc(-c2ccc3c(c2F)CC[C@H]3NC(=O)c2cnn(C)c2)no1` [Compound 562, (R)-N-(5-(5-ethyl-1,2,4-oxadiazol-3-yl)-4-fluoro-2,3-dihydro-1H-inden-1-yl)-1-methyl-1H-pyrazole-4-carboxamide], the “CDMF75 IC15” value was 0.3 µM and the IC50 is 1 µM.
On the same counts, the results for `Cn1cncc1C(=O)NC1CCc2cc(-c3noc(C(F)F)n3)ccc21` (stereo not drawn) [Compound 6, N-(5-(5-(difluoromethyl)-1,2,4-oxadiazol-3-yl)-2,3-dihydro-1H-inden-1-yl)-1-methyl-1H-imidazole-5-carboxamide] are 0.7 µM and 3.4 µM.
The corresponding values for `Cc1nc(-c2ccc3c(c2)OC[C@@H]3NC(=O)c2oc(C)nc2C)no1` [Compound 160, (R)-2,4-dimethyl-N-(6-(5-methyl-1,2,4-oxadiazol-3-yl)-2,3-dihydrobenzofuran-3-yl)oxazole-5-carboxamide] are 6.5 µM and 31.3 µM.
`CCc1nc(-c2cnc3c(c2)CCC3NC(=O)c2ccccc2)no1` (stereo not drawn) [Compound 17, N-(3-(5-ethyl-1,2,4-oxadiazol-3-yl)-6,7-dihydro-5H-cyclopenta[b]pyridin-7-yl)benzamide]: the “CDMF75 IC15” value turned out to be 2.3 µM and the IC50 was 11.3 µM.
Take `Cc1nc(-c2ccc3c(c2)CCC3NC(=O)c2cn(C)nc2C)no1` (stereo not drawn) [Compound 55, 1,3-dimethyl-N-(5-(5-methyl-1,2,4-oxadiazol-3-yl)-2,3-dihydro-1H-inden-1-yl)-1H-pyrazole-4-carboxamide]: the “CDMF75 IC15” value is 2.0 µM and the IC50 worked out at 6.8 µM.
The corresponding values for `CCc1nc(-c2ccc3c(c2)CC[C@H]3NC(=O)c2ccn(C)c(=O)c2)no1` [Compound 558, (R)-N-(5-(5-ethyl-1,2,4-oxadiazol-3-yl)-2,3-dihydro-1H-inden-1-yl)-1-methyl-2-oxo-1,2-dihydropyridine-4-carboxamide] are 2.0 µM and 8.3 µM.
The corresponding values for `Cc1nc(-c2ccc3c(c2)CC[C@H]3NC(=O)c2ocnc2C)no1` [Compound 449, (R)-4-methyl-N-(5-(5-methyl-1,2,4-oxadiazol-3-yl)-2,3-dihydro-1H-inden-1-yl)oxazole-5-carboxamide] are 0.5 µM and 1.5 µM.
On the same counts, the results for `Cc1nc(C)c(C(=O)N[C@@H]2COc3cc(-c4noc(C(F)F)n4)ccc32)o1` [Compound 193, (S)-N-(6-(5-(difluoromethyl)-1,2,4-oxadiazol-3-yl)-2,3-dihydrobenzofuran-3-yl)-2,4-dimethyloxazole-5-carboxamide] are 0.5 µM and 2.1 µM.
As for `CCC(=O)N[C@@H]1CCc2cc(-c3noc(C(F)F)n3)ccc21` [Compound 283, (R)-N-(5-(5-(difluoromethyl)-1,2,4-oxadiazol-3-yl)-2,3-dihydro-1H-inden-1-yl)propionamide], the “CDMF75 IC15” value was 9.6 µM and the concentration for half-maximal inhibition (IC50) was above 39.2 µM.
`CCc1nc(-c2ccc3c(c2)CC[C@H]3NC(=O)c2cnc(O)o2)no1` [Compound 638, (R)-N-(5-(5-ethyl-1,2,4-oxadiazol-3-yl)-2,3-dihydro-1H-inden-1-yl)-2-hydroxyoxazole-5-carboxamide]: the “CDMF75 IC15” value amounted to 1.0 µM and the IC50 turned out to be 3.9 µM.
Take `Cc1nn(C)cc1C(=O)N[C@@H]1CCc2cc(-c3noc(C4CCC4)n3)ccc21` [Compound 150, (R)-N-(5-(5-cyclobutyl-1,2,4-oxadiazol-3-yl)-2,3-dihydro-1H-inden-1-yl)-1,3-dimethyl-1H-pyrazole-4-carboxamide]: the “CDMF75 IC15” value came to 0.3 µM and the IC50 stood at 1.2 µM.
In the case of `COCCc1nc(-c2ccc3c(c2)CC[C@H]3NC(=O)c2cnn(C)c2)no1` [Compound 546, N-{(1R)-5-[5-(2-methoxyethyl)(1,2,4-oxadiazol-3-yl)]indanyl}(1-methylpyrazol-4-yl)carboxamide], the “CDMF75 IC15” value came to 15.5 µM and the IC50 is 39.2 µM.
